Data as given in US20070128217A1 (priority 2003, published 2007).

Experiments:
[1] = system: rabbit serum obtained by immunizing a rabbit with the SARS-CoV strain Frankfurt 1; type: binding; parameters: Binding of a rabbit serum to linear peptides / Binding of a rabbit serum to looped peptides / Rabbit serum linear peptides / Rabbit serum looped peptides / Binding of a rabbit serum to linear peptides of protein N of SARS-CoV Urbani (Rabbit serum linear peptides) / Binding of a rabbit serum to looped/cyclic peptides of protein N of SARS-CoV Urbani (Rabbit serum looped peptides): unit not given here
[2] = system: control sera (pooled serum of ten healthy LUMC hospital workers; commercial negative donor pooled serum from the Dutch bloodbank); type: binding, human; parameters: Binding of Control serum LUMC to linear peptides / Binding of Control serum Blood-bank to linear peptides / Binding of Control serum LUMC to looped peptides / Binding of Control Serum Blood-Bank to Looped peptides / Binding of Control serum LUMC to linear peptides of the protein M of SARS-CoV Urbani / Binding of Control serum Blood-bank to linear peptides of the protein M of SARS-CoV Urbani / Binding of Control serum LUMC to looped peptides of the protein M of SARS-CoV Urbani / Binding of Control Serum Blood-Bank to Looped peptides of the protein M of SARS-CoV Urbani: unit not given here
[3] = system: antibodies in sera from SARS patients (sera 1a, 1b, 2, 6, 37, 62, London, SARS-yellow, SARS-green); type: binding, human; parameters: Binding of serum 6 to linear peptides of protein X1 of SARS-CoV Urbani / Binding of serum 37 to linear peptides of protein X1 of SARS-CoV Urbani / Binding of serum 6 to looped/cyclic peptide (PEPSCAN-ELISA) / Binding of serum 37 to looped/cyclic peptide (PEPSCAN-ELISA) / Binding of serum 37 to looped/cyclic peptides of protein X1 of SARS-CoV Urbani / Binding of serum 6 to linear peptides of protein X2 / Binding of serum 37 to linear peptides of protein X2 / Binding of serum 37 to looped/cyclic peptides of protein X2 of SARS-CoV Urbani / Binding of serum 6 to linear peptides of protein M of SARS-CoV Urbani / Binding of serum 37 to linear peptides of protein M of SARS-CoV Urbani / Binding of serum 6 to looped/cyclic peptides of protein M of SARS-CoV Urbani / Binding of serum 37 to looped/cyclic peptides of protein M of SARS-CoV Urbani / Binding of serum 6 to linear peptides of protein X3 of SARS-CoV Urbani / Binding of serum 37 to linear peptides of protein X3 of SARS-CoV Urbani / Binding of serum 37 to looped/cyclic peptides of protein X3 of SARS-CoV Urbani / Binding of serum 6 to linear peptides of protein X4 of SARS-CoV Urbani / Binding of serum 37 to linear peptides of protein X4 of SARS-CoV Urbani / Binding of serum 37 to looped/cyclic peptides of protein X4 of SARS-CoV Urbani / Binding of serum 6 to linear peptides of protein X5 of SARS-CoV Urbani / Binding of serum 37 to linear peptides of protein X5 of SARS-CoV Urbani / Binding of serum 37 to looped/cyclic peptides of protein X5 of SARS-CoV Urbani / Binding of serum 6 to linear peptides of protein N of SARS-CoV Urbani / Binding of serum 37 to linear peptides of protein N of SARS-CoV Urbani / Binding of serum 6 to linear peptide (PEPSCAN-ELISA) / Binding of serum 1a to looped/cyclic peptides of protein N of SARS-CoV Urbani / Binding of serum 1b to looped/cyclic peptides of protein N of SARS-CoV Urbani / Binding of serum 2 to looped/cyclic peptides of protein N of SARS-CoV Urbani / Binding of serum 6 to looped/cyclic peptides of protein N of SARS-CoV Urbani / Binding of serum 37 to looped/cyclic peptides of protein N of SARS-CoV Urbani / Binding of serum 62 to looped/cyclic peptides of protein N of SARS-CoV Urbani / Binding of serum London to looped/cyclic peptides of protein N of SARS-CoV Urbani / Binding of serum SARS-green to looped/cyclic peptides of protein N of SARS-CoV Urbani: unit not given here

Sequence | Recognition of the peptide by sera of SARS-CoV infected individuals, and form (linear, looped/cyclic) in which it is recognized [3] | Rabbit serum linear peptides [1] | Rabbit serum looped peptides [1] | Binding of Control Serum Blood-Bank to Looped peptides of the protein M of SARS-CoV Urbani [2] | Binding of Control serum Blood-bank to linear peptides of the protein M of SARS-CoV Urbani [2] | Binding of Control serum LUMC to linear peptides of the protein M of SARS-CoV Urbani [2] | Binding of Control serum LUMC to looped peptides of the protein M of SARS-CoV Urbani [2] | Binding of serum 1a to linear peptides of protein M of SARS-CoV Urbani [3] | Binding of serum 1b to linear peptides of protein M of SARS-CoV Urbani [3] | Binding of serum 2 to linear peptides of protein M of SARS-CoV Urbani [3] | Binding of serum 6 to linear peptides of protein M of SARS-CoV Urbani [3] | Binding of serum 37 to linear peptides of protein M of SARS-CoV Urbani [3] | Binding of serum 62 to linear peptides of protein M of SARS-CoV Urbani [3] | Binding of serum London to linear peptides of protein M of SARS-CoV Urbani [3] | Binding of serum SARS-green to linear peptides of protein M of SARS-CoV Urbani [3] | Binding of serum SARS-yellow to linear peptides of protein M of SARS-CoV Urbani [3] | other results
WLCWKCKSKNPLLYD | recognized in linear form | – | – | – | – | – | – | – | – | – | – | – | – | – | – | – | Binding of a rabbit serum to linear peptides [1]: 0.2; Binding of a rabbit serum to looped peptides [1]: 0.6; Binding of Control Serum Blood-Bank to Looped peptides [2]: 0.7; Binding of Control serum Blood-bank to linear peptides [2]: 0.6; Binding of Control serum LUMC to linear peptides [2]: 0.7; Binding of Control serum LUMC to looped peptides [2]: 0.8; Binding of serum 1a to looped/cyclic peptide (PEPSCAN-ELISA) [3]: 0.8; Binding of serum 1b to looped/cyclic peptide (PEPSCAN-ELISA) [3]: 0.6; Binding of serum 2 to looped/cyclic peptide (PEPSCAN-ELISA) [3]: 0.6; Binding of serum 6 to looped/cyclic peptide (PEPSCAN-ELISA) [3]: 0.6; Binding of serum 37 to looped/cyclic peptide (PEPSCAN-ELISA) [3]: 0.9; Binding of serum 62 to looped/cyclic peptide (PEPSCAN-ELISA) [3]: 0.7; Binding of serum London to looped/cyclic peptide (PEPSCAN-ELISA) [3]: 0.3; Binding of serum SARS-green to looped/cyclic peptide (PEPSCAN-ELISA) [3]: 0.4; Binding of serum SARS-yellow to looped/cyclic peptide (PEPSCAN-ELISA) [3]: 0.6
WLLWPVTLACFVLAA | – | 0.3 | 0.3 | 0.5 | 0.4 | 0.2 | 0.6 | 0.6 | 0.5 | 0.5 | 0.4 | 0.6 | 0.6 | 0.3 | 0.3 | 0.0 | Binding of serum 1a to looped/cyclic peptides of protein M of SARS-CoV Urbani [3]: 0.7; Binding of serum 1b to looped/cyclic peptides of protein M of SARS-CoV Urbani [3]: 0.3; Binding of serum 2 to looped/cyclic peptides of protein M of SARS-CoV Urbani [3]: 0.7; Binding of serum 6 to looped/cyclic peptides of protein M of SARS-CoV Urbani [3]: 0.5; Binding of serum 37 to looped/cyclic peptides of protein M of SARS-CoV Urbani [3]: 0.7; Binding of serum 62 to looped/cyclic peptides of protein M of SARS-CoV Urbani [3]: 0.7; Binding of serum London to looped/cyclic peptides of protein M of SARS-CoV Urbani [3]: 0.2; Binding of serum SARS-green to looped/cyclic peptides of protein M of SARS-CoV Urbani [3]: 0.3; Binding of serum SARS-yellow to looped/cyclic peptides of protein M of SARS-CoV Urbani [3]: 0.7
WLSYFVASFRLFART | recognized in looped/cyclic form | 0.2 | 0.4 | 0.6 | 0.7 | 0.6 | 0.8 | 0.6 | 0.5 | 0.4 | 0.4 | 0.4 | 0.4 | 0.3 | 0.4 | 0.1 | –
